From US20250179047A1, “5-[7-(3,4-DIHYDRO-1H-ISOQUINOLINE-2-CARBONYL)-1,2,3,4 TETRAHYDROISOQUINOLIN-6-YL]-1H-PYRROLE-3-CARBOXAMIDE DERIVATIVES, PHARMACEUTICAL COMPOSITIONS CONTAINING THEM AND THEIR USES AS PRO-APOPTOTIC AGENTS” (LES LABORATOIRES SERVIER, priority 2022, published 2025)
Where two headings read alike, the source gives them in different places.

How the values were obtained:
KMS-12-PE Bcl-2 G101V = assay: In vitro cytotoxicity CellTiter-Glo 48 h, KMS-12-PE Bcl-2 G101V; type: cell-based; details: for Ratio (G101V/WT): C50 KMS-12-PE Bcl-2 G101V over C50 KMS-12-PE Bcl-2 WT; for IC50: Homo sapiens, KMS-12-PE, 48 h, CellTiter-Glo, C50 = concentration needed to reach 50% of the cellular viability
Outline: (§1)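 Transduce KMS-12-PE with Bcl-2 WT or G101V lentivirus, then FACS-sort RFP-positive cells. Add compounds in an 11-point dilution series and incubate 48 h at 37 °C. Measure ATP-based luminescence with CellTiter-Glo and derive C50 (50% viability).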

BCL2 WT = BCL2 WT (Homo sapiens (Human), UniProt P10415); assay: TR-FRET competitive binding assay, BCL2 WT
Outline: (§2)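 Terbium-labelled N-terminal Halo-fusion BCL2 or BCLXL (E. coli), 0.5 nM, competed against fluorescein-labelled PUMA peptide (2 or 20 nM) for 2 h at 23° C in 50 mM Hepes pH 7.5, 150 mM NaCl, 5% DMSO. TR-FRET 520/495 nm ratio gave IC50 by four-parameter fit; Ki derived from IC50.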

BCLXL WT = BCLXL WT (Homo sapiens (Human), UniProt Q07817); assay: TR-FRET competitive binding assay, BCLXL WT; details: for Ki: BCLXL WT, Ki determined from IC50, read-out: TR_FRET EKI BclxL; for TR_FRET EKI BCLxL/WT selectivty ratio: ratio Ki BCLxL / Ki BCL2 WT
BCLXL WT, sequence (Q07817 other isoform, or with tags, fused parts or gaps): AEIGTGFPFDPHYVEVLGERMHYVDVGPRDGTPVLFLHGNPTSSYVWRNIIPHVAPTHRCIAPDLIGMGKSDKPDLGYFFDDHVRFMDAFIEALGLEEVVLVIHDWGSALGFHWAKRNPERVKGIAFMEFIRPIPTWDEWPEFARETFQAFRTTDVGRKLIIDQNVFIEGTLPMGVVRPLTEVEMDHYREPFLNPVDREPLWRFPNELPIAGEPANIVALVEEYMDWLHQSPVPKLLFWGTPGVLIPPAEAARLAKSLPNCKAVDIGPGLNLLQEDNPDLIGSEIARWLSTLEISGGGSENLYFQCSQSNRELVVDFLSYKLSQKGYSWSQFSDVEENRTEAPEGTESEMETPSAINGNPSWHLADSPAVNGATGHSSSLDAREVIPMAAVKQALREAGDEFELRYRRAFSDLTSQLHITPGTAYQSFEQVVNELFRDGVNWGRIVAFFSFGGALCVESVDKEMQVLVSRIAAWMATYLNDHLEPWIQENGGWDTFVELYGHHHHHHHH
Outline: as §2

BCL2 D103Y = BCL2 D103Y (Homo sapiens, UniProt P10415, D103Y); assay: TR-FRET competitive binding assay, BCL2 D103Y; details: Ki determined from IC50, read-out: TR_FRET EKI_Bcl2 D103Y
Outline: as §2

KMS-12-PE Bcl-2 WT = assay: In vitro cytotoxicity CellTiter-Glo 48 h, KMS-12-PE Bcl-2 WT; type: cell-based; details: Homo sapiens, KMS-12-PE, C50 = concentration needed to reach 50% of the cellular viability
Outline: as §1

BCL2 G101V [1] = molecular target: BCL2 G101V (Homo sapiens, UniProt P10415, G101V); assay: TR-FRET competitive binding assay, BCL2 G101V; details: BCL2 G101V; Ki determined from IC50; read-out: TR_FRET EKI_Bcl2 G101V
Outline: as §2

BCL2 G101V [2] = assay: TR-FRET competitive binding assay, BCL2 G101V; parameters: species or system human; details: for TR_FRET EKI G101V/WT selectivty ratio: ratio Ki BCL2 G101V / Ki BCL2 WT
Outline: as §2

[3] = Ki determined from IC50, read-out: TR_FRET EKI_Bcl2 WT

SMILES | Ki (BCL2 WT; [3]) | Ki (BCLXL WT) | TR_FRET EKI BCLxL/WT selectivty ratio (BCLXL WT) | Ki (BCL2 D103Y) | Ki (BCL2 G101V [1]) | TR_FRET EKI G101V/WT selectivty ratio (BCL2 G101V [2]) | Ki (BCL2 WT; Ki determined from IC50, read-out: TR_FRET EKI_Bcl2) | TR_FRET EKI BCLxL/WT selectivty (BCLXL WT; ratio of Ki BCLxL to BCL2 WT) | TR_FRET EKI G101V/WT selectivty (BCL2 G101V [2]; ratio of Ki BCL2 G101V to BCL2 WT) | Ratio (G101V/WT) (KMS-12-PE Bcl-2 G101V) | IC50 (KMS-12-PE Bcl-2 G101V) | IC50 (KMS-12-PE Bcl-2 WT)
Cc1c(N(C(=O)c2cc(-c3cc4c(cc3C(=O)N3Cc5ccccc5C[C@H]3C)CN(C(=O)Cc3ccc(N5CCN6CC(F)(F)C[C@H]6C5)cc3F)CC4)n(C)c2C)c2ccc(O)cc2)cc(C#N)n1C [Example 40, 5-[2-(2-{4-[(8aS)-7,7-difluoro-hexahydropyrrolo[1,2-a]piperazin-2-yl]-2-fluorophenyl}acetyl)-7-{[(3R)-3-methyl-3,4-dihydro-1H-isoquinolin-2-yl]carbonyl}-3,4-dihydro-1H-isoquinolin-6-yl]-N-(5-cyano-1,2-dimethylpyrrol-3-yl)-N-(4-hydroxyphenyl)-1,2-dimethylpyrrole-3-carboxamide] | 0.68 nM | 7 nM | 10.3 | 2.11 nM | 3 nM | 4.4 |  |  |  | 4.54 | 0.0426 µM | 0.0094 µM
Cc1c(N(C(=O)c2cc(-c3cc4c(cc3C(=O)N3Cc5ccccc5C[C@H]3CN)CN(C(=O)Cc3ccc(OCCN5CCOCC5)cc3F)CC4)n(C)c2C)c2ccc(O)cc2)cc(C#N)n1C [Example 230] |  | 0.9 nM |  | 0.066 nM | 0.067 nM |  | 0.014 nM | 64.3 | 4.8 | 2.7 | 0.964 µM | 0.351 µM

Further molecules by falling Ki (BCLXL WT), results first:

Ki (BCL2 WT; [3]) | Ki (BCLXL WT) | TR_FRET EKI BCLxL/WT selectivty ratio (BCLXL WT) | Ki (BCL2 D103Y) | Ki (BCL2 G101V [1]) | TR_FRET EKI G101V/WT selectivty ratio (BCL2 G101V [2]) | Ki (BCL2 WT; Ki determined from IC50, read-out: TR_FRET EKI_Bcl2) | TR_FRET EKI BCLxL/WT selectivty (BCLXL WT; ratio of Ki BCLxL to BCL2 WT) | TR_FRET EKI G101V/WT selectivty (BCL2 G101V [2]; ratio of Ki BCL2 G101V to BCL2 WT) | SMILES | Ratio (G101V/WT) (KMS-12-PE Bcl-2 G101V) | IC50 (KMS-12-PE Bcl-2 G101V) | IC50 (KMS-12-PE Bcl-2 WT)
0.1 nM | 5.2 nM | 52.5 | 0.14 nM | 0.5 nM | 5.1 |  |  |  | Cc1c(N(C(=O)c2cc(-c3cc4c(cc3C(=O)N3Cc5ccccc5C[C@H]3CN3CCCCC3)CN(C(=O)Cc3ccc(OCCC5CCOCC5)nc3)CC4)n(C)c2C)c2ccc(O)cc2)cc(C#N)n1C [Example 118, N-(5-cyano-1,2-dimethyl-1H-pyrrol-3-yl)-N-(4-hydroxyphenyl)-1,2-dimethyl-5-[2-(2-{6-[2-(oxan-4-yl)ethoxy]pyridin-3-yl}acetyl)-7-[(3S)-3-[(piperidin-1-yl)methyl]-1,2,3,4-tetrahydroisoquinoline-2-carbonyl]-1,2,3,4-tetrahydroisoquinolin-6-yl]-1H-pyrrole-3-carboxamide] | 7.61 | 0.0814 µM | 0.0107 µM
0.25 nM | 4.5 nM | 18.0 | 0.88 nM | 0.8 nM | 3.4 |  |  |  | Cc1c(C(=O)N(c2ccc(O)cc2)c2ccc3c(cnn3C)c2)cc(-c2cc3c(cc2C(=O)N2Cc4ccccc4C[C@H]2C)CN(C(=O)Cc2ccc(OCCN4CCOCC4)cc2)CC3)n1C [Example 90, N-(4-hydroxyphenyl)-1,2-dimethyl-5-(7-{[(3R)-3-methyl-3,4-dihydro-1H-isoquinolin-2-yl]carbonyl}-2-(2-{4-[2-(morpholin-4-yl)ethoxy]phenyl}acetyl)-3,4-dihydro-1H-isoquinolin-6-yl)-N-(1-methylindazol-5-yl)pyrrole-3-carboxamide] | 5.92 | 0.0657 µM | 0.0111 µM
0.05 nM | 2.8 nM | 52.8 | 0.14 nM | 0.3 nM | 5.2 |  |  |  | Cc1c(N(C(=O)c2cc(-c3cc4c(cc3C(=O)N3Cc5ccccc5C[C@H]3CN3CCCC3)CN(C(=O)Cc3ccc(OCCC5CCOCC5)cc3)CC4)n(C)c2C)c2ccc(O)cc2)cc(C#N)n1C [Example 99, N-(5-cyano-1,2-dimethylpyrrol-3-yl)-N-(4-hydroxyphenyl)-1,2-dimethyl-5-[2-(2-{4-[2-(oxan-4-yl)ethoxy]phenyl}acetyl)-7-{[(3S)-3-(pyrrolidin-1-ylmethyl)-3,4-dihydro-1H-isoquinolin-2-yl]carbonyl}-3,4-dihydro-1H-isoquinolin-6-yl]pyrrole-3-carboxamide] | 7.27 | 0.0763 µM | 0.0105 µM
